Assay results reported in ChEMBL document CHEMBL1152554, “Synthesis and pharmacological evaluation of 6-naltrexamine analogs for alcohol cessation” (Bioorg Med Chem, 2009).
Calls of active or inactive are those of the source. The calls are words filed in the database; no cut-off is given here.

Experiments:
Nociceptin receptor [1] = target: T1, Nociceptin receptor (Homo sapiens, UniProt P41146); assay: biochemical
Nociceptin receptor [2] = target: T1, Nociceptin receptor; assay: biochemical; remark: listed apart in the source
[3] = mouse, microsomes
Liver microsomes = conditions: human
Nociceptin receptor [4] = target: T1, Nociceptin receptor; assay: Activity at NOP expressed in HEK293 cells assessed as stimulation of [35S]GTPgammaS binding relative to basal level; assay type: functional, cell-based
[5] = Ratio of drug level in brain to plasma in Wistar rat at 400 ug/kg, po after […]; assay type: ADME, organism-based; conditions: 0.4 mg/kg, read-out: BPR
Nociceptin receptor [6] = target: T1, Nociceptin receptor; assay: biochemical; remark: listed apart in the source
Rattus norvegicus = assay: Inhibition of saccharin intake in sc dosed Wistar rat by saccharin-self administration test; assay type: functional, organism-based
in vitro = conditions: mouse, liver microsomes

T1 sequence (P41146 whole entry): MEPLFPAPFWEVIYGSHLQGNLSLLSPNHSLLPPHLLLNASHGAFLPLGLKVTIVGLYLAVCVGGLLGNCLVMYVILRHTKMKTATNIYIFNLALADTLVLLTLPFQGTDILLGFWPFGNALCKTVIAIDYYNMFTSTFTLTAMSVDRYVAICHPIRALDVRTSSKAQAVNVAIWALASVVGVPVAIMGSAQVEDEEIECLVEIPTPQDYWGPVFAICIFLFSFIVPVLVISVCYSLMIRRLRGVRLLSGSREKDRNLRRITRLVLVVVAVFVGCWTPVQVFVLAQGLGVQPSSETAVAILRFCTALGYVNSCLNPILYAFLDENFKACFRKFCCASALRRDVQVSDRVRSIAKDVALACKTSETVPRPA

SMILES | EC50 (Nociceptin receptor [1]) | Stability [3] | Stability (Liver microsomes) | further results
O=C(N[C@@H]1CC[C@@]2(O)[C@H]3Cc4ccc(O)c5c4[C@@]2(CCN3CC2CC2)[C@H]1O5)c1ccc(Cl)c(Cl)c1.O=C(O)C(=O)O | > 10 µM | Stable |  | EC50 (Nociceptin receptor [2]): 0.0001 µM
Cc1ccc(C(=O)N[C@@H]2CC[C@@]3(O)[C@H]4Cc5ccc(O)c6c5[C@@]3(CCN4CC3CC3)[C@H]2O6)cc1.O=C(O)C(=O)O |  | Stable | Stable | 
O=C(N[C@@H]1CC[C@@]2(O)[C@H]3Cc4ccc(O)c5c4[C@@]2(CCN3CC2CC2)[C@H]1O5)c1ccc(C(F)(F)F)cc1.O=C(O)C(=O)O |  | Stable | Stable | 
Oc1ccc2c3c1O[C@H]1c4[nH]c5ccccc5c4C[C@@]4(O)[C@@H](C2)N(CC2CC2)CC[C@]314 |  |  |  | Emax (Nociceptin receptor [4]): 109%
CC(C)(C)c1ccc(C(=O)N[C@@H]2CC[C@@]3(O)[C@H]4Cc5ccc(O)c6c5[C@@]3(CCN4CC3CC3)[C@H]2O6)cc1.O=C(O)C(=O)O |  | Stable |  | 
O=C(N[C@@H]1CC[C@@]2(O)[C@H]3Cc4ccc(O)c5c4[C@@]2(CCN3CC2CC2)[C@H]1O5)c1ccc(Cl)cc1 | > 10 µM |  |  | 
O=C(O)C(=O)O.O=[14C](N[C@@H]1CC[C@@]2(O)[C@H]3Cc4ccc(O)c5c4[C@@]2(CCN3CC2CC2)[C@H]1O5)c1ccc(Br)cc1 |  |  |  | Kp at […] [5]: 2.3
O=C(N[C@@H]1CC[C@@]2(O)[C@H]3Cc4ccc(O)c5c4[C@@]2(CCN3CC2CC2)[C@H]1O5)c1ccc(Br)cc1.O=C(O)C(=O)O | > 10 µM |  | Stable | Ki (Nociceptin receptor [6]): > 10 µM; inhibition (Rattus norvegicus): Active
C=C1CC[C@@]2(O)[C@H]3Cc4ccc(O)c5c4[C@@]2(CCN3CC2CC2)[C@H]1O5 |  |  |  | half-life (in vitro): 20 min
